Assay results published in PubChem BioAssay AID2060484 (Molecular Pharmacology Branch, DTP, NCI, 2025).

Tested on: SUM149PT spheroids with HUVEC/MSC, viability
Experiment: Anticancer human tumor SUM149PT cell line growth inhibition [GQUAD];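 further: spheroids exposed to drugs for seven days before readout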;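 on viability, T/C: percent viability relative to DMSO vehicle control taken as 100%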
Details: for IC50: curve of first compound; for viability, T/C: stronger effect = lower value
In short: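 Multi-cell-type spheroids of tumor cells with HUVEC and mesenchymal stem cells, treated with drug combinations. Concentrations descend in half-log steps from near clinical Cmax, or from 10 microM where Cmax is unknown; viability read-out.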

[1] = second compound 0.0316 µM, first compound 0.0316 µM
[2] = second compound 0.0316 µM, first compound 0.1 µM
[3] = second compound 0.0316 µM, first compound 0.316 µM
[4] = second compound 0.0316 µM, first compound 1 µM
[5] = second compound 0.0316 µM, first compound 3.16 µM
[6] = second compound 0.0316 µM, first compound 10 µM
[7] = second compound 0.1 µM, first compound 0.0316 µM
[8] = second compound 0.1 µM, first compound 0.1 µM
[9] = second compound 0.1 µM, first compound 0.316 µM
[10] = second compound 0.1 µM, first compound 1 µM
[11] = second compound 0.1 µM, first compound 3.16 µM
[12] = second compound 0.1 µM, first compound 10 µM
[13] = second compound 0.316 µM, first compound 0.0316 µM
[14] = second compound 0.316 µM, first compound 0.1 µM
[15] = second compound 0.316 µM, first compound 0.316 µM
[16] = second compound 0.316 µM, first compound 1 µM
[17] = second compound 0.316 µM, first compound 3.16 µM
[18] = second compound 0.316 µM, first compound 10 µM
[19] = second compound 1 µM, first compound 0.0316 µM
[20] = second compound 1 µM, first compound 0.1 µM
[21] = second compound 1 µM, first compound 0.316 µM
[22] = second compound 1 µM, first compound 1 µM
[23] = second compound 1 µM, first compound 3.16 µM
[24] = second compound 1 µM, first compound 10 µM
[25] = second compound 3.16 µM, first compound 0.0316 µM
[26] = second compound 3.16 µM, first compound 0.1 µM
[27] = second compound 3.16 µM, first compound 0.316 µM
[28] = second compound 3.16 µM, first compound 1 µM
[29] = second compound 3.16 µM, first compound 3.16 µM
[30] = second compound 3.16 µM, first compound 10 µM
[31] = second compound 10 µM, first compound 0.0316 µM
[32] = second compound 10 µM, first compound 0.1 µM
[33] = second compound 10 µM, first compound 0.316 µM
[34] = second compound 10 µM, first compound 1 µM
[35] = second compound 10 µM, first compound 3.16 µM
[36] = second compound 10 µM, first compound 10 µM

`C=CC(=O)N1CCN(c2nc(=O)n(-c3c(C)ccnc3C(C)C)c3nc(-c4c(O)cccc4F)c(F)cc23)C(C)C1` (centres undefined) + CN(C)c1ccc(Nc2c3ccc(NC(=O)CCN4CCCC4)cc3nc3cc(NC(=O)CCN4CCCC4)ccc23)cc1 showed an IC50 (second compound 0.0316 µM) greater than 10 µM, an IC50 (second compound 0.1 µM) greater than 10 µM and an IC50 (second compound 0.316 µM) greater than 10 µM. For the same compound, the IC50 (second compound 1 µM) was greater than 10 µM, the IC50 (second compound 3.16 µM) was greater than 10 µM and the IC50 (second compound 10 µM) was greater than 10 µM. It also gave a viability, T/C [1] of 106%, a viability, T/C [2] of 101% and a viability, T/C [3] of 105%. For the same compound, the viability, T/C [4] was 110%, the viability, T/C [5] was 122% and the viability, T/C [6] was 101%. The viability, T/C [7] was 99.7%, the viability, T/C [8] was 102% and the viability, T/C [9] was 98.2%. The viability, T/C [10] was 113%, the viability, T/C [11] was 115% and the viability, T/C [12] was 108%. It also gave a viability, T/C [13] of 96.1%, a viability, T/C [14] of 93.9% and a viability, T/C [15] of 110%. For the same compound, the viability, T/C [16] was 114%, the viability, T/C [17] was 111% and the viability, T/C [18] was 101%. It also gave a viability, T/C [19] of 96.5%, a viability, T/C [20] of 86.5% and a viability, T/C [21] of 95.4%. It also gave a viability, T/C [22] of 103%, a viability, T/C [23] of 113% and a viability, T/C [24] of 96.7%. For the same compound, the viability, T/C [25] was 88.3%, the viability, T/C [26] was 89.9% and the viability, T/C [27] was 103%. For the same compound, the viability, T/C [28] was 104%, the viability, T/C [29] was 106% and the viability, T/C [30] was 85.4%. For the same compound, the viability, T/C [31] was 86.8%, the viability, T/C [32] was 82.9% and the viability, T/C [33] was 92.6%. It also gave a viability, T/C [34] of 90%, a viability, T/C [35] of 100% and a viability, T/C [36] of 69.2%.

For `O=C(c1cc(Cc2n[nH]c(=O)c3ccccc23)ccc1F)N1CCN(C(=O)C2CC2)CC1` + Cc1[nH]c2ccc(F)cc2c1-c1nc2c3cccnc3c3ncccc3c2[nH]1, the IC50 (second compound 0.0316 µM) was greater than 10 µM, the IC50 (second compound 0.1 µM) was greater than 10 µM and the IC50 (second compound 0.316 µM) was greater than 10 µM. For the same compound, the IC50 (second compound 1 µM) was greater than 10 µM, the IC50 (second compound 3.16 µM) was greater than 10 µM and the IC50 (second compound 10 µM) was greater than 10 µM. For the same compound, the viability, T/C [1] was 105%, the viability, T/C [2] was 97.4% and the viability, T/C [3] was 98.5%. The viability, T/C [4] was 103%, the viability, T/C [5] was 93.2% and the viability, T/C [6] was 80.3%. The viability, T/C [7] was 102%, the viability, T/C [8] was 96.8% and the viability, T/C [9] was 96.5%. It also gave a viability, T/C [10] of 99.8%, a viability, T/C [11] of 108% and a viability, T/C [12] of 76.9%. For the same compound, the viability, T/C [13] was 93.8%, the viability, T/C [14] was 95.1% and the viability, T/C [15] was 103%. It also gave a viability, T/C [16] of 111%, a viability, T/C [17] of 96.6% and a viability, T/C [18] of 74.8%. The viability, T/C [19] was 99.9%, the viability, T/C [20] was 97.6% and the viability, T/C [21] was 108%. It also gave a viability, T/C [22] of 100%, a viability, T/C [23] of 100% and a viability, T/C [24] of 69.2%. For the same compound, the viability, T/C [25] was 89.9%, the viability, T/C [26] was 96.4% and the viability, T/C [27] was 98.4%. The viability, T/C [28] was 99.6%, the viability, T/C [29] was 95.8% and the viability, T/C [30] was 75.2%. For the same compound, the viability, T/C [31] was 86.8%, the viability, T/C [32] was 86.6% and the viability, T/C [33] was 82.4%. The viability, T/C [34] was 101%, the viability, T/C [35] was 102% and the viability, T/C [36] was 73.5%.
